The conditions of the data set: 298.15 K, 101.33 kPa, Liquid; for viscosity: Capillary tube (Ostwald / Ubbelohde) method; for speed of sound: Sing-around technique in a fixed-path interferometer; for mass density: Vibrating tube method.

We go through two compounds from the NIST ThermoML archive (doi:10.1021/je300742t).

SMILES strings stand for the structures. ± gives the expanded uncertainty stated by the source.

In the case of `NCCO` [2-aminoethan-1-ol], the viscosity (as a rule, the internal friction of a fluid under shear) is reported as 18.74 ± 0.13 mPa·s; the speed of sound (usually the propagation velocity of pressure waves in the medium) was 1719.2 ± 1.7 m/s; the mass density (usually mass per unit of volume) is 1011.98 ± 0.3 kg/m3.

With `CN1CCCC1=O` [N-methylpyrrolidone], the viscosity stood at 1.681 ± 0.013 mPa·s, the speed of sound worked out at 1545.2 ± 1.7 m/s and the mass density turned out to be 1028.3 ± 0.31 kg/m3.
